“Also recorded” adds a separate entry of the source.
Assays:
[1] = tested on: AMPK; assay: Immunoblot of AMPK T172 phosphorylation (AMPK activation); assay type: cell-based; settings: 25 mM
Experimental: (§1) HEK293 cells were seeded and maintained in Dulbecco's modified Eagle's medium (DMEM) containing 10% fetal bovine serum (FBS). Transfection was performed in serum-free conditions using Lipofectamine reagent (Invitrogen, Carlsbad, Calif.) in accordance with the manufacturer's instructions. In brief, 4 h after transfection, the cells were recovered in DMEM containing 10% FBS for 16 h and then starved for 16-24 h. Cells were then lysed in lysis buffer (10 mM Tris-HCl at pH 7.5, 100 mM sodium chloride, 1% NP-40, 1% Triton X-100, 50 mM sodium fluoride, 2 mM EDTA, 1 mM phenyl methylsulphonyl fluoride, 10 μg ml^−1 leupeptin and 10 μg ml^−1 aprotinine) and immunoprecipitated with the indicated antibodies and protein G-Sepharose beads. Immunocomplexes were analyzed by SDS-polyacrylamide gel electrophoresis (PAGE).

[2] = tested on: TSC2; assay: TSC2/TSC1 phosphorylation in transfected HEK293 cells (mobility shift, 32P labelling, two-dimensional phosphopeptide mapping); assay type: cell-based, human
Experimental: as §1
HEK293 cells were cotransfected with HA-tagged TSC2, Myc-tagged TSC1 and the indicated plasmids. Cells were phosphate- and serum-starved for 4 h before incubation with 0.25 mCi ml^−1 32P-orthophosphate (ICN) for 4 h.
Cells were washed once with ice-cold PBS and lysed. HA-tagged TSC2 was immunoprecipitated, resolved by SDS-PAGE and transferred to a PVDF membrane. Phosphorylated TSC2 was visualized by autoradiography and phosphopeptide mapping was then performed. In brief, the phosphorylated TSC2 bands were excised, fixed in methanol and incubated in 500 μl of 0.5% polyvinylpyrrolidone-40 dissolved in 100 mM acetic acid for 30 min at 37° C. The sample were then digested with 20 μg of TPCK-treated trypsin (Sigma) at 37° C. in 75 mM ammonium bicarbonate buffer at pH 8.0 containing 5% acetonitrile. After digestion, samples were dried under vacuum and suspended in 10 μl of water. Samples were spotted onto a cellulose plate and first dimensional electrophoresis was performed using 1% ammonium bicarbonate buffer at pH 8.9. The plates were separated by chromatography in the second dimension in chromatography buffer (n-butanol:pyridine:acetic acid:water; 20:24:6:30). The plates were dried and phosphopeptides were visualized by autoradiography.

[3] = tested on: AMPK and TSC2 interaction; assay: Co-immunoprecipitation of endogenous AMPK and TSC2; assay type: cell-based, human; settings: HEK293
Experimental: as §1

[4] = tested on: phosphorylation of S6K, S6, 4EBP1 and mTOR; assay: Immunoblot of S6K, S6, 4EBP1 and mTOR phosphorylation in HEK293 cells under energy depletion; assay type: cell-based, human
Experimental: as §1

[5] = tested on: eukaryotic elongation factor 2 (eEF2); settings: Horman et al.; cited from earlier work
[6] = tested on: acetyl CoA carboxylase (ACC) and eukaryote elongation factor 2 (eEF2); assay: Phosphorylation of the AMPK substrates ACC and eEF2; assay type: cell-based
[7] = tested on: EEF8 (TSC2−/−) cells; assay: S6K and 4EBP1 phosphorylation in EEF8 (TSC2-/-) fibroblasts; assay type: cell-based
[8] = tested on: AMPK; settings: Corton et al.; cited from earlier work
[9] = tested on: HEK293 cells; assay: Cell size of HEK293 cells by FACS; assay type: cell-based, human; settings: 12.5 mM 2-DG or 20 nM rapamycin, 72 hours
Experimental: FIGS. 17a-17b show TSC2 plays roles for cell size control in response to energy starvation. […] HEK293 cells were cultured in the presence of 12.5 mM 2DG, TSC2 RNAi, or 20 nM rapamycin for 72 hours. Cells were harvested and FACS analysis was performed to determine cell size. The X-axis indicates relative cell size. Cell size distribution curve of the control, as indicated by the gray curve, is included in each panel for comparison purposes. […] Experiments are similar to those in panel A.

[10] = tested on: Akt phosphorylation; assay: Immunoblot of Akt phosphorylation in HEK293 cells; assay type: cell-based, human; settings: 25 mM 2-DG
Experimental: as §1

[11] = tested on: S6K and 4EBP1; settings: cited from earlier work
[12] = tested on: EEF4 (TSC2+/+) cells; assay: S6K and 4EBP1 phosphorylation in EEF4 (TSC2+/+) fibroblasts; assay type: cell-based
[13] = tested on: intracellular ATP levels; assay: Intracellular ATP levels and AMP/ATP ratio; assay type: cell-based; settings: 25 mM

Compound: O=CC[C@@H](O)[C@H](O)[C@H](O)CO [2-DG, 2-deoxy-glucose]
- T172 phosphorylation in AMPK [1]: dramatic increase of T172 phosphorylation; also recorded: induces phosphorylation of AMPK
- AMPK activation and S6K dephosphorylation as a function of treatment time ([1]; time course): rapid AMPK activation and concomitant dephosphorylation of S6K
- mobility of TSC1 [2]: did not alter the mobility of TSC1
- mobility shift of TSC2 ([2]; 2-DG treatment): mobility shift is due to phosphorylation
- TSC2 phosphorylation (in vivo labeling, two dimensional phosphopeptide mapping) ([2]; 25 and 40 mM): enhanced phosphorylation of several peptides; also recorded: induce TSC2 phosphorylation on multiple spots in vivo
- interaction between endogenous AMPK and TSC2 (co-immunoprecipitation) [3]: interact preferentially with AMPK following 2-DG stimulation; also recorded: enhanced; also recorded: enhances the interaction between TSC2 and AMPK; also recorded: stimulates the interaction
- phosphorylation of S6K on T389 ([4]; 25 mM): effectively inhibited; also recorded: dephosphorylation
- phosphorylation of S6 and 4EBP1 ([4]; 25 mM): dephosphorylation
- phosphorylation of mTOR S2448 ([4]; 25 mM): inhibited; also recorded: dephosphorylation
- S6K phosphorylation in TSC2 RNAi knockdown cells ([4]; HEK293, TSC2 RNAi): blocked in TSC2 knockdown cells, but not in the control cells; also recorded: knockdown of TSC2 by RNA interference blocks the 2-DG response
- phosphorylation of S6K and 4EBP1 ([4]; depletion of cellular ATP): caused a dephosphorylation of S6K and 4EBP1
- phosphorylation of eEF2 [5]: increase phosphorylation
- phosphorylation of ACC and eEF2 [6]: 2-DG-induced phosphorylation of ACC and eEF2
- S6K and 4EBP1 phosphorylation ([7]; EEF8, TSC2 T1227A/S1345A mutant expressing cells): less responsive to 2-DG treatment
- S6K and 4EBP1 phosphorylation ([7]; EEF8, vector infected cells): caused little decrease
- S6K and 4EBP1 phosphorylation ([7]; EEF8, wild type TSC2 expressing cells): significantly decreased
- AMPK activation [8]: activate AMPK
- cell size [9]: significantly decreased cell size; also recorded: decreases cell size
- cell size ([9]; listed as 2DG): decreases cell size
- Akt phosphorylation [10]: had little effect
- S6K and 4EBP1 phosphorylation ([11]; 20 to 100 mM, Dennis et al., 2001): inhibition of S6K and 4EBP1 phosphorylation
- S6K activity ([11]; Kimura et al., Krause et al.): inhibit S6K activity
- 4EBP1 phosphorylation [12]: inhibition of phosphorylation of 4EBP1
- AMP/ATP ratio [13]: increase; also recorded: increases the AMP/ATP ratio
- ATP levels [13]: statistically significant reduction; also recorded: decreases intracellular ATP levels
